Experimental data as given in the OligoGym collection.
HELM strings list units from the 5' end as sugar, base in round brackets, then linkage (d deoxyribose, r ribose, m 2'-O-methyl, p phosphodiester). Strings are as the collection lists them; they lack the last nucleoside at the 3' end of the tested compound. [moe] = 2'-O-(2-methoxyethyl) (MOE); [sp] = phosphorothioate linkage; [m5C] = 5-methylcytosine

Target: SCN2A
Assay: mouse, dose not given
Details: ASO

Substance	3 h FOB score [score 0-7]
RNA1{[moe]([m5C])[sp].[moe](G)p.[moe](T)p.[moe]([m5C])p.[moe](T)p.d([m5C])[sp].d(T)[sp].d(T)[sp].d(T)[sp].d([m5C])[sp].d(T)[sp].d(T)[sp].d(A)[sp].d(T)[sp].d(T)[sp].[moe](T)p.[moe]([m5C])p.[moe](T)[sp].[moe](G)}$$$$ (last 3' nucleoside missing)	1
RNA1{[moe](G)[sp].[moe]([m5C])p.[moe](A)p.[moe](T)p.d(G)[sp].d(T)[sp].d(A)[sp].d(A)[sp].d([m5C])[sp].d([m5C])[sp].d(T)[sp].d(T)[sp].d(T)[sp].d(A)[sp].[moe](T)p.[moe](A)p.[moe]([m5C])p.[moe](A)[sp].[moe](T)}$$$$ (last 3' nucleoside missing)	0
RNA1{[moe](A)[sp].[moe](T)p.[moe]([m5C])p.[moe](G)p.[moe](A)p.d(T)[sp].d(T)[sp].d([m5C])[sp].d([m5C])[sp].d(T)[sp].d(T)[sp].d(T)[sp].d([m5C])[sp].d(T)[sp].d(G)[sp].[moe]([m5C])p.[moe](A)p.[moe](T)[sp].[moe]([m5C])}$$$$ (last 3' nucleoside missing)	1
RNA1{[moe](A)[sp].[moe](A)p.[moe](T)p.[moe](T)p.[moe]([m5C])p.d(T)[sp].d(A)[sp].d(T)[sp].d(T)[sp].d(T)[sp].d(T)[sp].d(A)[sp].d(T)[sp].d(A)[sp].d(A)[sp].[moe](A)p.[moe](T)p.[moe](G)[sp].[moe]([m5C])}$$$$ (last 3' nucleoside missing)	0
RNA1{[moe](A)[sp].[moe](T)p.[moe]([m5C])p.[moe](A)p.[moe]([m5C])p.[moe](T)p.d(T)[sp].d(T)[sp].d([m5C])[sp].d(A)[sp].d(T)[sp].d([m5C])[sp].d([m5C])[sp].d(A)[sp].d([m5C])[sp].d(G)[sp].[moe](A)p.[moe]([m5C])[sp].[moe](A)}$$$$ (last 3' nucleoside missing)	0
RNA1{[moe](T)[sp].[moe](G)p.[moe](T)p.[moe](A)p.[moe](A)p.d([m5C])[sp].d([m5C])[sp].d(T)[sp].d(T)[sp].d(T)[sp].d(A)[sp].d(T)[sp].d(A)[sp].d([m5C])[sp].d(A)[sp].[moe](T)p.[moe](T)p.[moe](T)[sp].[moe](A)}$$$$ (last 3' nucleoside missing)	0
RNA1{[moe](T)[sp].[moe]([m5C])p.[moe]([m5C])p.[moe](A)p.[moe]([m5C])p.d(G)[sp].d(A)[sp].d([m5C])[sp].d(A)[sp].d(T)[sp].d(A)[sp].d(T)[sp].d(T)[sp].d(T)[sp].d(T)[sp].[moe](T)p.[moe]([m5C])p.[moe](T)[sp].[moe](A)}$$$$ (last 3' nucleoside missing)	1.33
RNA1{[moe]([m5C])[sp].[moe](T)p.[moe]([m5C])p.[moe](T)p.d(T)[sp].d(T)[sp].d([m5C])[sp].d(T)[sp].d(T)[sp].d(A)[sp].d(T)[sp].d(T)[sp].d(T)[sp].d([m5C])[sp].[moe](T)p.[moe](G)p.[moe](T)p.[moe](T)[sp].[moe](T)}$$$$ (last 3' nucleoside missing)	0
RNA1{[moe](A)[sp].[moe](T)p.[moe](T)p.[moe]([m5C])p.[moe](T)p.d(A)[sp].d(T)[sp].d(T)[sp].d(T)[sp].d(T)[sp].d(A)[sp].d(T)[sp].d(A)[sp].d(A)[sp].d(A)[sp].[moe](T)p.[moe](G)p.[moe]([m5C])[sp].[moe]([m5C])}$$$$ (last 3' nucleoside missing)	1
RNA1{[moe](T)[sp].[moe]([m5C])p.[moe](A)p.[moe](T)p.d(G)[sp].d([m5C])[sp].d(A)[sp].d(T)[sp].d(A)[sp].d(A)[sp].d(T)[sp].d([m5C])[sp].d([m5C])[sp].d([m5C])[sp].[moe](A)p.[moe](T)p.[moe](T)p.[moe](A)[sp].[moe](T)}$$$$ (last 3' nucleoside missing)	0
RNA1{[moe](T)[sp].[moe](T)p.[moe]([m5C])p.[moe](T)p.[moe](A)p.d(T)[sp].d(T)[sp].d(T)[sp].d(T)[sp].d(A)[sp].d(T)[sp].d(A)[sp].d(A)[sp].d(A)[sp].d(T)[sp].[moe](G)p.[moe]([m5C])p.[moe]([m5C])[sp].[moe](G)}$$$$ (last 3' nucleoside missing)	0
RNA1{[moe](G)[sp].[moe](T)p.[moe]([m5C])p.[moe](T)p.[moe]([m5C])p.d(T)[sp].d(T)[sp].d(T)[sp].d([m5C])[sp].d(T)[sp].d(T)[sp].d(A)[sp].d(T)[sp].d(T)[sp].d(T)[sp].[moe]([m5C])p.[moe](T)p.[moe](G)[sp].[moe](T)}$$$$ (last 3' nucleoside missing)	1
RNA1{[moe](T)[sp].[moe](G)p.[moe](T)p.[moe](A)p.[moe](A)p.[moe]([m5C])p.d([m5C])[sp].d(T)[sp].d(T)[sp].d(T)[sp].d(A)[sp].d(T)[sp].d(A)[sp].d([m5C])[sp].d(A)[sp].d(T)[sp].[moe](T)p.[moe](T)[sp].[moe](A)}$$$$ (last 3' nucleoside missing)	0
RNA1{[moe](G)[sp].[moe]([m5C])p.[moe](A)p.[moe](T)p.[moe](G)p.[moe](T)p.d(A)[sp].d(A)[sp].d([m5C])[sp].d([m5C])[sp].d(T)[sp].d(T)[sp].d(T)[sp].d(A)[sp].d(T)[sp].d(A)[sp].[moe]([m5C])p.[moe](A)[sp].[moe](T)}$$$$ (last 3' nucleoside missing)	0
RNA1{[moe](A)[sp].[moe]([m5C])p.[moe](T)p.[moe](G)p.[moe](G)p.d([m5C])[sp].d(T)[sp].d(A)[sp].d(T)[sp].d(A)[sp].d([m5C])[sp].d(T)[sp].d([m5C])[sp].d(A)[sp].d(T)[sp].[moe](T)p.[moe](G)p.[moe]([m5C])[sp].[moe](T)}$$$$ (last 3' nucleoside missing)	1.33
RNA1{[moe]([m5C])[sp].[moe](A)p.[moe](T)p.[moe](A)p.[moe](T)p.d(T)[sp].d(T)[sp].d(T)[sp].d(T)[sp].d([m5C])[sp].d(T)[sp].d(A)[sp].d([m5C])[sp].d(A)[sp].d([m5C])[sp].[moe](T)p.[moe](G)p.[moe]([m5C])[sp].[moe](T)}$$$$ (last 3' nucleoside missing)	2
RNA1{[moe]([m5C])[sp].[moe](A)p.[moe](T)p.[moe](G)p.d([m5C])[sp].d(A)[sp].d(T)[sp].d(A)[sp].d(A)[sp].d(T)[sp].d([m5C])[sp].d([m5C])[sp].d([m5C])[sp].d(A)[sp].[moe](T)p.[moe](T)p.[moe](A)p.[moe](T)[sp].[moe](A)}$$$$ (last 3' nucleoside missing)	0
RNA1{[moe](G)[sp].[moe]([m5C])p.[moe](A)p.[moe](T)p.[moe](A)p.d(A)[sp].d(T)[sp].d([m5C])[sp].d([m5C])[sp].d([m5C])[sp].d(A)[sp].d(T)[sp].d(T)[sp].d(A)[sp].d(T)[sp].[moe](A)p.[moe]([m5C])p.[moe](A)[sp].[moe](A)}$$$$ (last 3' nucleoside missing)	0.5
RNA1{[moe](T)[sp].[moe]([m5C])p.[moe](T)p.[moe](G)[sp].d([m5C])[sp].d(A)[sp].d(T)[sp].d(G)[sp].d(T)[sp].d(A)[sp].d(A)[sp].d([m5C])[sp].[moe]([m5C])p.[moe](T)p.[moe](T)p.[moe](T)[sp].[moe](A)}$$$$ (last 3' nucleoside missing)	2
RNA1{[moe](A)[sp].[moe](T)p.[moe](G)p.[moe](T)p.[moe](A)p.d(A)[sp].d([m5C])[sp].d([m5C])[sp].d(T)[sp].d(T)[sp].d(T)[sp].d(A)[sp].d(T)[sp].d(A)[sp].d([m5C])[sp].[moe](A)p.[moe](T)p.[moe](T)[sp].[moe](T)}$$$$ (last 3' nucleoside missing)	0
RNA1{[moe](T)[sp].[moe](A)p.[moe](A)p.[moe](T)p.d([m5C])[sp].d(A)[sp].d([m5C])[sp].d(T)[sp].d(T)[sp].d(T)[sp].d([m5C])[sp].d(A)[sp].d(T)[sp].d([m5C])[sp].[moe]([m5C])p.[moe](A)p.[moe]([m5C])p.[moe](G)[sp].[moe](A)}$$$$ (last 3' nucleoside missing)	0
RNA1{[moe](T)[sp].[moe](G)p.[moe](G)p.[moe](G)p.[moe](T)p.d([m5C])[sp].d(T)[sp].d([m5C])[sp].d(T)[sp].d(T)[sp].d(A)[sp].d(G)[sp].d([m5C])[sp].d(T)[sp].d(T)[sp].[moe](T)p.[moe]([m5C])p.[moe](T)[sp].[moe]([m5C])}$$$$ (last 3' nucleoside missing)	1.33
RNA1{[moe](T)[sp].[moe](G)p.[moe]([m5C])p.[moe](A)p.[moe](T)p.d(G)[sp].d(T)[sp].d(A)[sp].d(A)[sp].d([m5C])[sp].d([m5C])[sp].d(T)[sp].d(T)[sp].d(T)[sp].d(A)[sp].[moe](T)p.[moe](A)p.[moe]([m5C])[sp].[moe](A)}$$$$ (last 3' nucleoside missing)	1
RNA1{[moe](A)[sp].[moe](T)p.[moe]([m5C])p.[moe](A)p.[moe](T)p.[moe](G)p.d([m5C])[sp].d(A)[sp].d(T)[sp].d(A)[sp].d(A)[sp].d(T)[sp].d([m5C])[sp].d([m5C])[sp].d([m5C])[sp].d(A)[sp].[moe](T)p.[moe](T)[sp].[moe](A)}$$$$ (last 3' nucleoside missing)	0
RNA1{[moe]([m5C])[sp].[moe](T)p.[moe](G)p.[moe]([m5C])[sp].d(A)[sp].d(T)[sp].d(G)[sp].d(T)[sp].d(A)[sp].d(A)[sp].d([m5C])[sp].d([m5C])[sp].[moe](T)p.[moe](T)p.[moe](T)p.[moe](A)[sp].[moe](T)}$$$$ (last 3' nucleoside missing)	1
RNA1{[moe](A)[sp].[moe](T)p.[moe](G)p.[moe](T)p.d(A)[sp].d(A)[sp].d([m5C])[sp].d([m5C])[sp].d(T)[sp].d(T)[sp].d(T)[sp].d(A)[sp].d(T)[sp].d(A)[sp].[moe]([m5C])p.[moe](A)p.[moe](T)p.[moe](T)[sp].[moe](T)}$$$$ (last 3' nucleoside missing)	0
